From ChEMBL document CHEMBL1139142, “Discovery of 4-amino-5,6-biaryl-furo[2,3-d]pyrimidines as inhibitors of Lck: development of an expedient and divergent synthetic route and preliminary SAR” (Bioorg Med Chem Lett, 2007)

Columns and labels:
[1] = test system: T-cell; test: Inhibition of T cell activation in human mixed lymphocyte reaction; assay type: functional, cell-based
[2] = biological target: Activated CDC42 kinase 1 (Homo sapiens, UniProt Q07912); test: Inhibition of Ack1
[3] = biological target: Tyrosine-protein kinase Lck (Homo sapiens, UniProt P06239); test: Inhibition of Lck
Sequence of Tyrosine-protein kinase Lck (P06239 whole entry): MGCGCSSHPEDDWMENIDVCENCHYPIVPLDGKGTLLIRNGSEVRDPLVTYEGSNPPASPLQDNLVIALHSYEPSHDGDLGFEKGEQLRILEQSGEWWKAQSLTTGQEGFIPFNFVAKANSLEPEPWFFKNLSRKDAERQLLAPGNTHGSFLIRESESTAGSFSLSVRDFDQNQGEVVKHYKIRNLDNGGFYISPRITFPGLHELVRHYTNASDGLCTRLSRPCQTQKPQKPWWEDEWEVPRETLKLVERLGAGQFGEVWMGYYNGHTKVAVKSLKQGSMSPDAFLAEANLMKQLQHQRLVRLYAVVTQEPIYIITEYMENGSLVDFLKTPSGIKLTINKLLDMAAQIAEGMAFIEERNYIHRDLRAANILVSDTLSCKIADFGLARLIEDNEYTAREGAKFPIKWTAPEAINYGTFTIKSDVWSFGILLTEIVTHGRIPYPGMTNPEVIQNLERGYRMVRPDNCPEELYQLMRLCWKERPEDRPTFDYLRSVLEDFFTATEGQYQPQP

[4] = test system: T-cell; test: Inhibition of anti-CD3/CD28-induced IL2 secretion in human T cells; assay type: functional, cell-based
[5] = Clearance in Sprague-Dawley rat at 1 mg/kg, iv; assay type: ADME, organism-based; parameters: dose 1 mg/kg, route intravenous; settings: in vivo
[6] = Oral bioavailability in Sprague-Dawley rat at 5 mg/kg; assay type: ADME, organism-based; settings: in vivo
[7] = Cmax in Sprague-Dawley rat at 5 mg/kg, po; assay type: ADME, organism-based; parameters: dose 5 mg/kg, route oral; settings: in vivo
[8] = AUC (0 to infinity) in Sprague-Dawley rat at 5 mg/kg, po; assay type: ADME, organism-based; parameters: time infinity, dose 5 mg/kg, route oral; settings: plasma
[9] = Volume of distribution at steady state in Sprague-Dawley rat at 1 mg/kg, iv; assay type: ADME, organism-based; parameters: dose 1 mg/kg, route intravenous; settings: in vivo, read-out: Vdss
[10] = Half life in Sprague-Dawley rat at 1 mg/kg, iv; assay type: ADME, organism-based; parameters: dose 1 mg/kg, route intravenous; settings: in vivo
[11] = biological target: Vascular endothelial growth factor receptor 2 (Homo sapiens, UniProt P35968); test: Inhibition of KDR
Sequence of Vascular endothelial growth factor receptor 2 (P35968 whole entry): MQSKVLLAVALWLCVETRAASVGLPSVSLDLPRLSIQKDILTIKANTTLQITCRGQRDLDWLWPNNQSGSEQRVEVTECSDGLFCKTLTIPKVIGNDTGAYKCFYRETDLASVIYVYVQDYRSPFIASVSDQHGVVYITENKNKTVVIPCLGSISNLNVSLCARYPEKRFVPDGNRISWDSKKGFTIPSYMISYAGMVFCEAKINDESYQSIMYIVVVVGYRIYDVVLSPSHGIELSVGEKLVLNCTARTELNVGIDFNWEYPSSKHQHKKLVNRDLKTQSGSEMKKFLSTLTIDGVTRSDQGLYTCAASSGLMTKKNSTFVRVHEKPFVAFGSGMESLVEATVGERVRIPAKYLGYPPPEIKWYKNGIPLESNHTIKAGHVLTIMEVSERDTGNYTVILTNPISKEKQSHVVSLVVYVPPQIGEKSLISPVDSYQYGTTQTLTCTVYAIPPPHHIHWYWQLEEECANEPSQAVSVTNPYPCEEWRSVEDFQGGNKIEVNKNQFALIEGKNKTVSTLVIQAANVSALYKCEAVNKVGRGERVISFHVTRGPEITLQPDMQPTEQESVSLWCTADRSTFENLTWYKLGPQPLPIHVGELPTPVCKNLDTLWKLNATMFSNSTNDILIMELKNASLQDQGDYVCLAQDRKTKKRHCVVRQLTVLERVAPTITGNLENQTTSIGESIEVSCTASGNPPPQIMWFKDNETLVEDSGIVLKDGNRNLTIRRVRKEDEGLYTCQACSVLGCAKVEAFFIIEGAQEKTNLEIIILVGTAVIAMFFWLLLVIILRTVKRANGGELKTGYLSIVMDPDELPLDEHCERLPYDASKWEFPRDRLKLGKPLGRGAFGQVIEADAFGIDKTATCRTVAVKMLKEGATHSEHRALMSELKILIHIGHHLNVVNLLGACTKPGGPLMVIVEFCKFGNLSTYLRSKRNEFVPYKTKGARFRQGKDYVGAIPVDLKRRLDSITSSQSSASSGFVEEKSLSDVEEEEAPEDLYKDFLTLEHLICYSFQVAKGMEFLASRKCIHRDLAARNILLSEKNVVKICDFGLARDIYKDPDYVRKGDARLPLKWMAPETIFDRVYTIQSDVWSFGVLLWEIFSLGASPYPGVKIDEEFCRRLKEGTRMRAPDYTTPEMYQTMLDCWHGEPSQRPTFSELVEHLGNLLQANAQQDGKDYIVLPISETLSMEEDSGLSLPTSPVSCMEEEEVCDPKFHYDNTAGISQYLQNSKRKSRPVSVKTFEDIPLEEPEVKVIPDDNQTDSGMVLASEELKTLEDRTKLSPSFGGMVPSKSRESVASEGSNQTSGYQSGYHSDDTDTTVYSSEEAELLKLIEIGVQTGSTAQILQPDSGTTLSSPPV

[12] = biological target: Tyrosine-protein kinase JAK2 (Homo sapiens, UniProt O60674); test: Inhibition of Jak2
[13] = biological target: Epidermal growth factor receptor (Homo sapiens, UniProt P00533)
[14] = biological target: Proto-oncogene tyrosine-protein kinase Src (Homo sapiens, UniProt P12931); test: Inhibition of Src
Sequence of Proto-oncogene tyrosine-protein kinase Src (P12931 2-536 limits assumed): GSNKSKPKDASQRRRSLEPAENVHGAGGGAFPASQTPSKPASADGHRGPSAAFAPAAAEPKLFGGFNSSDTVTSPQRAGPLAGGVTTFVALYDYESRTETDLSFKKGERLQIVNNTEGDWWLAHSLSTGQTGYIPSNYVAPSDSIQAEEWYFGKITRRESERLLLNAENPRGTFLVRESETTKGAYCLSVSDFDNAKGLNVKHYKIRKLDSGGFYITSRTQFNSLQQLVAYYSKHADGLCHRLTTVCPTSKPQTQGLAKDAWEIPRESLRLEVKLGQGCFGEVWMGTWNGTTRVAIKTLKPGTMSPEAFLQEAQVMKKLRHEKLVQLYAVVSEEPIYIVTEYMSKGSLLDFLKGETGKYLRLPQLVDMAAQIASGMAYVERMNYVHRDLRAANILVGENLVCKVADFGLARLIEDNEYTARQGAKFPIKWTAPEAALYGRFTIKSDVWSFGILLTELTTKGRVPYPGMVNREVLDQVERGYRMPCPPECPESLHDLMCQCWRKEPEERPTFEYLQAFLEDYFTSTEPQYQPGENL

[15] = biological target: T1, Tyrosine-protein kinase ZAP-70 (Homo sapiens, UniProt P43403); test: Inhibition of ZAP70
T1 sequence (P43403 whole entry): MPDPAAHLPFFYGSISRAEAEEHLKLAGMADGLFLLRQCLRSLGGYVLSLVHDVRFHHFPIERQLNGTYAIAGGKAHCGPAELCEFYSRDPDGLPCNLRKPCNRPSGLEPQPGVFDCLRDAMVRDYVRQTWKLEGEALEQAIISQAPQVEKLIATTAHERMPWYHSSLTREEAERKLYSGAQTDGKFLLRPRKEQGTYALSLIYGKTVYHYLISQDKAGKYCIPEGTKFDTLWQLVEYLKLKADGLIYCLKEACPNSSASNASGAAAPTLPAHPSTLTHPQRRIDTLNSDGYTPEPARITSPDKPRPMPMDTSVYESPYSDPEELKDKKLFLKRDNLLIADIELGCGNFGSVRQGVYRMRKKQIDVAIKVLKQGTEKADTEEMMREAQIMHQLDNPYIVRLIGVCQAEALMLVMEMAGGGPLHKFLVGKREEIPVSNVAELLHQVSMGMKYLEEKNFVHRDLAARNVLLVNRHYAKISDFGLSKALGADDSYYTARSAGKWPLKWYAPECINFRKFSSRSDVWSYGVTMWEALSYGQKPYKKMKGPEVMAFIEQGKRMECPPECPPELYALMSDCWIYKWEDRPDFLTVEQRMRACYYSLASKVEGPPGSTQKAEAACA

[16] = biological target: Angiopoietin-1 receptor (Homo sapiens, UniProt Q02763); test: Inhibition of Tie2
Sequence of Angiopoietin-1 receptor (Q02763 whole entry): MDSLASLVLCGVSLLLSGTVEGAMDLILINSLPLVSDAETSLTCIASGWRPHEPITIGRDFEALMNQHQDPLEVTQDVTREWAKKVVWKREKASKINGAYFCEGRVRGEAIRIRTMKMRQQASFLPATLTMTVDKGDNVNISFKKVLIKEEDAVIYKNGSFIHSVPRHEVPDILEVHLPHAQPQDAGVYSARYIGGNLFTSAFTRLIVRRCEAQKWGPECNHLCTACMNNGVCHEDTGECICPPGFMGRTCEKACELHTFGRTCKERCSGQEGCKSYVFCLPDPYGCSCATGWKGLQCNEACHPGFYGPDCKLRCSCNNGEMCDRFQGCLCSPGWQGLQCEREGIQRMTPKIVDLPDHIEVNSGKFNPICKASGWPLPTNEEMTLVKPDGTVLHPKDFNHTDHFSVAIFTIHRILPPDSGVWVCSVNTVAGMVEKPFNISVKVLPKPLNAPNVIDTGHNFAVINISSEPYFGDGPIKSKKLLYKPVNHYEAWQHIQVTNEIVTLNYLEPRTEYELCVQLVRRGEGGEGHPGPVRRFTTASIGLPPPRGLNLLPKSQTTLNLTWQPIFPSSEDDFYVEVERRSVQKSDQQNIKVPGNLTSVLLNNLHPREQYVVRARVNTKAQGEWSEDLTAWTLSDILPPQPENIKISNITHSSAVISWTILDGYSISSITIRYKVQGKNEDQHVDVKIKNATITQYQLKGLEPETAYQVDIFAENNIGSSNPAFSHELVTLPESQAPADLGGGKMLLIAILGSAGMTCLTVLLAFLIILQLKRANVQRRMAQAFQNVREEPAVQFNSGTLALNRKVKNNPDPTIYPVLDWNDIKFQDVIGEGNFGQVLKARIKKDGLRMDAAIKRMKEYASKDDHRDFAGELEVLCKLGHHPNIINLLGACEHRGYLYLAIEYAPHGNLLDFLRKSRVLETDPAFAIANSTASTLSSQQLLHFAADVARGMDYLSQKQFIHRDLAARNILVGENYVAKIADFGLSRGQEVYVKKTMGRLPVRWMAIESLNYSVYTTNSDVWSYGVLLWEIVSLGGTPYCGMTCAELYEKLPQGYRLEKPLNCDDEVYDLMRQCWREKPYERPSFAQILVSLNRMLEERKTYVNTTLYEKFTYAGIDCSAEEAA

[17] = biological target: T2, Tyrosine-protein kinase JAK3 (Homo sapiens, UniProt P52333); test: Inhibition of Jak3
T2 sequence (P52333 whole entry): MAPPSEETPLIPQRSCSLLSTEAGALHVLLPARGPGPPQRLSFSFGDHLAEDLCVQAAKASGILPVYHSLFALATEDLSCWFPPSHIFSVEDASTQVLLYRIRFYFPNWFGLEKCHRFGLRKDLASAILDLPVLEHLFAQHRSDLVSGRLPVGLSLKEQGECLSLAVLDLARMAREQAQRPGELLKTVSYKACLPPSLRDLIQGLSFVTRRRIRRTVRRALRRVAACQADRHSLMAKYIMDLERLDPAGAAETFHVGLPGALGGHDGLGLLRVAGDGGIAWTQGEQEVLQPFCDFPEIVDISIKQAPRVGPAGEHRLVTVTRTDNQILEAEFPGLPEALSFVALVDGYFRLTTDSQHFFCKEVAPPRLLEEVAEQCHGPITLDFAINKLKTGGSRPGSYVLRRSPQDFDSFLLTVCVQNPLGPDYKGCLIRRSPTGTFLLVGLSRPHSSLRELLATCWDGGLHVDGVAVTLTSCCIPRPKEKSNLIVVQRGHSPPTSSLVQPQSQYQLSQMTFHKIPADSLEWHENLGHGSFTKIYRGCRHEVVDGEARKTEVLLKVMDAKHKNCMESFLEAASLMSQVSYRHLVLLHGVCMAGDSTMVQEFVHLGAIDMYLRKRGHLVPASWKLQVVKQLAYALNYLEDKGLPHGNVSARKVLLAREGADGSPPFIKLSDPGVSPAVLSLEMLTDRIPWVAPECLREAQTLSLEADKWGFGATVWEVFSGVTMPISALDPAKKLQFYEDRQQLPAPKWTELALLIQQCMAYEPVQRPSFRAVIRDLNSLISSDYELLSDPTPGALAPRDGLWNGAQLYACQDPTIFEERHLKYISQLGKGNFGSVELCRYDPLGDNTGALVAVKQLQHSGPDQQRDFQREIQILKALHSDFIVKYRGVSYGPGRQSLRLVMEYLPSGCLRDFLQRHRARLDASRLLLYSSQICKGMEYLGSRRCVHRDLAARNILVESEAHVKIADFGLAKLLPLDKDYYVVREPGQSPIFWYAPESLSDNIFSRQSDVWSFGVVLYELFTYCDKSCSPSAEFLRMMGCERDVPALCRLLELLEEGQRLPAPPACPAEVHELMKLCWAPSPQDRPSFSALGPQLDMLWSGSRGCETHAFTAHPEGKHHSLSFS

[18] = Inhibition of IGFR; parameters: species or system Homo sapiens

Sequence of Activated CDC42 kinase 1 (Q07912 whole entry): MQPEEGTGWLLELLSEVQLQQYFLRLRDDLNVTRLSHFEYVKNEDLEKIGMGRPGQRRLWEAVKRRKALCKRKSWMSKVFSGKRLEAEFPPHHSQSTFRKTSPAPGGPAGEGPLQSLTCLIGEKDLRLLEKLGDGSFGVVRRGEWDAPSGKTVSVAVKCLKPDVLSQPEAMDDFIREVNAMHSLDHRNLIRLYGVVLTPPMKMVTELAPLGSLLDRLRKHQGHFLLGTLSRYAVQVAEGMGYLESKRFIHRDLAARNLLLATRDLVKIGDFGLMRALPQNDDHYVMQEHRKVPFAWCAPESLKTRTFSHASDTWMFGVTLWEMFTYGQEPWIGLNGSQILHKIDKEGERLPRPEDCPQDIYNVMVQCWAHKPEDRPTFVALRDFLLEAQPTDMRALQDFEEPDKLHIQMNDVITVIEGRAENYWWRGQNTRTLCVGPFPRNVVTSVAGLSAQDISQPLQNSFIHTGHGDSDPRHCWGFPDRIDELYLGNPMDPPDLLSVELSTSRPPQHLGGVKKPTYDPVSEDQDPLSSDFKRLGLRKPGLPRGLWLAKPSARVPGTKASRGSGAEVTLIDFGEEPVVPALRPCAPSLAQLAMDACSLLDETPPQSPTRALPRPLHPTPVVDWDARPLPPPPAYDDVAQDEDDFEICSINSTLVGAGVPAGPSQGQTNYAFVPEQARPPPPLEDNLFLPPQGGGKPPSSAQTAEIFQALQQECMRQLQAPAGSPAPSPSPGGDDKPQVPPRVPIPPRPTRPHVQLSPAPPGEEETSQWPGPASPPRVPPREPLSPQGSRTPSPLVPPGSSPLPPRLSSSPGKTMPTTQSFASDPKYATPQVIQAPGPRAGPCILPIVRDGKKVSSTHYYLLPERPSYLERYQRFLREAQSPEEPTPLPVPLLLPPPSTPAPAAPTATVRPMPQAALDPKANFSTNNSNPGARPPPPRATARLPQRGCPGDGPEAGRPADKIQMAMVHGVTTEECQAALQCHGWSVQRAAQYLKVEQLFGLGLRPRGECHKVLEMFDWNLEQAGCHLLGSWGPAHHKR

SMILES | IC50 [1] [nM] | IC50 [2] [nM] | IC50 [3] [nM] | IC50 [4] [nM] | other results
c1ccc(-c2oc3ncnc(NC[C@H]4CCCO4)c3c2-c2ccccc2)cc1 | 2130 | 523 | 1210 |  | 
c1ccc(-c2oc3ncnc(NC[C@@H]4CCCO4)c3c2-c2ccccc2)cc1 | 8950 | 24 | 122 | 2410 | 
c1ccc(-c2oc3ncnc(NCCN4CCNCC4)c3c2-c2ccccc2)cc1 | 1710 | 181 |  | 690 | clearance [5]: 14.8 mL/min/kg; bioavailability [6]: 15%; Cmax [7]: 180 ng/mL; AUC(0-inf) [8]: 1040 ng·h/mL; Vd [9]: 2.77 L/kg; half-life [10]: 142 min
c1ccc(-c2c(-c3ccc(OCCN4CCCC4)cc3)oc3ncnc(NCCN4CCNCC4)c23)cc1 | 227 | 98 | 9 | 430 | IC50 [11]: 3100 nM; IC50 [12]: > 8.33 µM; IC50 [13]: 397 nM; IC50 [14]: 45 nM; IC50 [15]: 992 nM; IC50 [16]: > 25 µM; IC50 [17]: 960 nM; IC50 [18]: 3150 nM
c1ccc(-c2c(-c3ccc(OCCN4CCCC4)cc3)oc3ncnc(NCCC4CCNCC4)c23)cc1 | 2450 | 332 | 14 |  | 
CN(C)CCOc1ccc(-c2oc3ncnc(NC[C@@H]4CCCO4)c3c2-c2ccccc2)cc1 | 464 | 11 | 6 | 119 | 
c1ccc(-c2c(-c3ccc(OCCN4CCCC4)cc3)oc3ncnc(NC[C@@H]4CCCO4)c23)cc1 | 670 | 16 | 11 | 435 | 
c1ccc(CCNc2ncnc3oc(-c4ccc(OCCN5CCCC5)cc4)c(-c4ccccc4)c23)cc1 | 1670 | 1 | 5 | 5720 | 
CN1CCN(Cc2ccc(-c3oc4ncnc(NC[C@@H]5CCCO5)c4c3-c3ccccc3)cc2)CC1 | 337 | 7 | 6 | 293 | 
CC(C)Nc1ncnc2oc(-c3ccc(OCCN4CCCC4)cc3)c(-c3ccccc3)c12 | 533 | 78 | 36 | 199 | IC50 [11]: 537 nM; IC50 [12]: 4.89 µM; IC50 [13]: 1030 nM; IC50 [14]: 914 nM; IC50 [15]: 3270 nM; IC50 [16]: > 8.33 µM; IC50 [17]: 1430 nM; IC50 [18]: 1490 nM
CCN1CCN(C(=O)c2ccc(-c3oc4ncnc(NC[C@@H]5CCCO5)c4c3-c3ccccc3)cc2)CC1 | 437 | 13 | 11 | 2420 | 
c1ccc(-c2c(-c3ccc(N4CCOCC4)cc3)oc3ncnc(NCCN4CCNCC4)c23)cc1 | 227 | 17 | 11 |  | 
CN1CCOc2cc(-c3oc4ncnc(NCCN5CCNCC5)c4c3-c3ccccc3)ccc21 | 3080 | 97 | 42 |  | 
c1ccc(-c2c(-c3ccc(CN4CCOCC4)cc3)oc3ncnc(NCCN4CCNCC4)c23)cc1 | 138 | 91 | 27 |  | 
O=C(c1ccc(-c2oc3ncnc(NCCN4CCNCC4)c3c2-c2ccccc2)cc1)N1CCCCC1 | 121 | 85 | 22 |  | 
CN(C)CCOc1ccc(-c2oc3ncnc(NCCN4CCNCC4)c3c2-c2ccccc2)cc1 | 360 | 148 | 14 | 468 | 
COc1cc(-c2oc3ncnc(NCCN4CCNCC4)c3c2-c2ccccc2)ccc1OCCN1CCCCC1 | 3220 | 586 | 22 | 2630 | 
CC(C)(C)Nc1ncnc2oc(-c3ccc(OCCN4CCCC4)cc3)c(-c3ccccc3)c12 | 2380 | 650 | 83 | 3260 | 
COc1cc(-c2oc3ncnc(NC[C@@H]4CCCO4)c3c2-c2ccccc2)ccc1OCCN1CCCCC1 | 825 | 38 | 8 | 193 | 
